Experimental data taken from US20260048047A1, “SMALL-MOLECULE ACTIVATORS OF MYCOBACTERIUM TUBERCULOSIS ADENYLYL CYCLASE” (priority 2022, published 2026).

Test system: M. tuberculosis
Assay: Extracellular activity against M. tuberculosis in cholesterol media (Alamar Blue reduction assay)
Type: cell-based, Mycobacterium tuberculosis
Conditions: Mycobacterium tuberculosis, 240 h, 7H12-Cholesterol media, 10 days; read-out: Cholesterol broth: alamar blue--EC50

Structure (SMILES)	EC50 [µM]
Cc1nonc1CC(=O)N1CCC(c2nc([C@@H]3CC[C@H](F)C3)no2)CC1 [Compound 113, 1-(4-(3-((1R,3S)-3-fluorocyclopentyl)-1,2,4-oxadiazol-5-yl)piperidin-1-yl)-2-(4-methyl-1,2,5-oxadiazol-3-yl)ethan-1-one]	> 25
Cc1nonc1CC(=O)N1CCC(c2nc([C@@H]3CC[C@@H](F)C3)no2)CC1 [Compound 114, 1-(4-(3-((1R,3R)-3-fluorocyclopentyl)-1,2,4-oxadiazol-5-yl)piperidin-1-yl)-2-(4-methyl-1,2,5-oxadiazol-3-yl)ethan-1-one]	7.04
Cc1nonc1CC(=O)N1CCC(c2nc(C3CCC(F)CC3)no2)CC1 (centres unmarked) [Compound 115, 1-(4-(3-(4-fluorocyclohexyl)-1,2,4-oxadiazol-5-yl)piperidin-1-yl)-2-(4-methyl-1,2,5-oxadiazol-3-yl)ethan-1-one]	> 25
Cc1nonc1CC(=O)N1CCC(c2noc(C34CC(F)(C3)C4)n2)CC1 [Compound 116, 1-(4-(5-(3-fluorobicyclo[1.1.1]pentan-1-yl)-1,2,4-oxadiazol-3-yl)piperidin-1-yl)-2-(4-methyl-1,2,5-oxadiazol-3-yl)ethan-1-one]	9.23
Cc1nonc1CC(=O)N1CCC(c2nc(-c3ccc(C(F)(F)F)c(F)c3)no2)CC1 [Compound 117]	0.278
Cc1nonc1CC(=O)N1CCC(c2nc(-c3ccc(Cl)c(F)c3)no2)CC1 [Compound 118, 1-(4-(3-(4-chloro-3-fluorophenyl)-1,2,4-oxadiazol-5-yl)piperidin-1-yl)-2-(4-methyl-1,2,5-oxadiazol-3-yl)ethan-1-one]	0.0805
Cc1nonc1CC(=O)N1CCC(c2nc(-c3cc(F)cc(Cl)c3)no2)CC1 [Compound 119, 1-(4-(3-(3-chloro-5-fluorophenyl)-1,2,4-oxadiazol-5-yl)piperidin-1-yl)-2-(4-methyl-1,2,5-oxadiazol-3-yl)ethan-1-one]	0.47
Cc1nonc1CC(=O)N1CCC(c2nc(-c3ccc(Cl)cc3F)no2)CC1 [Compound 120, 1-(4-(3-(4-chloro-2-fluorophenyl)-1,2,4-oxadiazol-5-yl)piperidin-1-yl)-2-(4-methyl-1,2,5-oxadiazol-3-yl)ethan-1-one]	0.37
Cc1nonc1CC(=O)N1CCC(c2nc(-c3ccc(F)cc3Cl)no2)CC1 [Compound 121, 1-(4-(3-(2-chloro-4-fluorophenyl)-1,2,4-oxadiazol-5-yl)piperidin-1-yl)-2-(4-methyl-1,2,5-oxadiazol-3-yl)ethan-1-one]	0.38
Cc1nonc1CC(=O)N1CCC(c2nc(-c3ccc(F)cc3F)no2)CC1 [Compound 122, 1-(4-(3-(2,4-difluorophenyl)-1,2,4-oxadiazol-5-yl)piperidin-1-yl)-2-(4-methyl-1,2,5-oxadiazol-3-yl)ethan-1-one]	0.39
Cc1nonc1CC(=O)N1CCC(c2nc(-c3ccc(F)cc3C(F)(F)F)no2)CC1 [Compound 123]	1.48
Cc1nonc1CC(=O)N1CCC(c2nc(-c3ccc(F)c(C(F)(F)F)c3)no2)CC1 [Compound 124]	0.334
Cc1nonc1CC(=O)N1CCC(c2nc(-c3ccc(F)c(OC(F)(F)F)c3)no2)CC1 [Compound 125]	0.288
Cc1nonc1CC(=O)N1CCC(n2ccc(-c3ccc(F)cc3)n2)CC1 [Compound 127, 1-(4-(3-(4-fluorophenyl)-1H-pyrazol-1-yl)piperidin-1-yl)-2-(4-methyl-1,2,5-oxadiazol-3-yl)ethan-1-one]	2.97
Cc1nonc1CC(=O)N1CCC(n2cc(-c3ccc(F)cc3)nn2)CC1 [Compound 128, 1-(4-(4-(4-fluorophenyl)-1H-1,2,3-triazol-1-yl)piperidin-1-yl)-2-(4-methyl-1,2,5-oxadiazol-3-yl)ethan-1-one]	> 10
Cc1nonc1CC(=O)N1CCC(c2nnc(-c3ccc(F)cc3)o2)CC1 [Compound 129, 1-(4-(5-(4-fluorophenyl)-1,3,4-oxadiazol-2-yl)piperidin-1-yl)-2-(4-methyl-1,2,5-oxadiazol-3-yl)ethan-1-one]	> 10
Cc1nonc1CC(=O)N1CCC(c2nc(-c3ccc(F)cc3)no2)CC1 [Compound 130, 1-(4-(3-(4-fluorophenyl)-1,2,4-oxadiazol-5-yl)piperidin-1-yl)-2-(4-methyl-1,2,5-oxadiazol-3-yl)ethan-1-one]	0.275
Cc1nonc1CC(=O)N1CCC(c2noc(-c3ccc(F)cc3)n2)CC1 [Compound 132, 1-(4-(5-(4-fluorophenyl)-1,2,4-oxadiazol-3-yl)piperidin-1-yl)-2-(4-methyl-1,2,5-oxadiazol-3-yl)ethan-1-one]	1.07
Cc1nonc1CC(=O)N1CCC(c2nc(-c3ccc(F)cc3)co2)CC1 [Compound 134, 1-(4-(4-(4-fluorophenyl)oxazol-2-yl)piperidin-1-yl)-2-(4-methyl-1,2,5-oxadiazol-3-yl)ethan-1-one]	1.43

Structure (SMILES)	EC50 [µM]
Cc1nonc1CC(=O)N1CCC(c2cc(-c3ccc(F)cc3)no2)CC1 [Compound 135, 1-(4-(3-(4-fluorophenyl)isoxazol-5-yl)piperidin-1-yl)-2-(4-methyl-1,2,5-oxadiazol-3-yl)ethan-1-one]	1.58
Cc1nonc1CC(=O)N1CCC(C)(c2nc(-c3ccc(F)cc3)no2)CC1 [Compound 138, 1-(4-(3-(4-fluorophenyl)-1,2,4-oxadiazol-5-yl)-4-methylpiperidin-1-yl)-2-(4-methyl-1,2,5-oxadiazol-3-yl)ethan-1-one]	1.47
Cc1nonc1CC(=O)N1CCC(c2nc(-c3ccc(F)cc3)no2)(C(F)(F)F)CC1 [Compound 139, 1-(4-(3-(4-fluorophenyl)-1,2,4-oxadiazol-5-yl)-4-(trifluoromethyl)piperidin-1-yl)-2-(4-methyl-1,2,5-oxadiazol-3-yl)ethan-1-one]	> 10
Cc1nonc1CC(=O)N1CCC(O)(c2nc(-c3ccc(F)cc3)no2)CC1 [Compound 140, 1-(4-(3-(4-fluorophenyl)-1,2,4-oxadiazol-5-yl)-4-hydroxypiperidin-1-yl)-2-(4-methyl-1,2,5-oxadiazol-3-yl)ethan-1-one]	0.685
Cc1nonc1CC(=O)N1CCC(c2nc(-c3ccc(F)cn3)no2)CC1 [Compound 141, 1-(4-(3-(5-fluoropyridin-2-yl)-1,2,4-oxadiazol-5-yl)piperidin-1-yl)-2-(4-methyl-1,2,5-oxadiazol-3-yl)ethan-1-one]	> 10
Cc1nonc1CC(=O)N1CCC(c2nc(Cc3ccc(F)cc3)no2)CC1 [Compound 142, 1-(4-(3-(4-fluorobenzyl)-1,2,4-oxadiazol-5-yl)piperidin-1-yl)-2-(4-methyl-1,2,5-oxadiazol-3-yl)ethan-1-one]	6.64
Cc1nonc1CC(=O)N1CCC(c2nc(-c3cccc(F)c3F)no2)CC1 [Compound 143, 1-(4-(3-(2,3-difluorophenyl)-1,2,4-oxadiazol-5-yl)piperidin-1-yl)-2-(4-methyl-1,2,5-oxadiazol-3-yl)ethan-1-one]	1.2
Cc1nonc1CC(=O)N1CCC(c2nc(-c3cccc(F)c3)no2)CC1 [Compound 144, 1-(4-(3-(3-fluorophenyl)-1,2,4-oxadiazol-5-yl)piperidin-1-yl)-2-(4-methyl-1,2,5-oxadiazol-3-yl)ethan-1-one]	0.59
Cc1nonc1CC(=O)N1CCC(n2nnc(-c3cccc(F)c3)n2)CC1 [Compound 145, 1-(4-(5-(3-fluorophenyl)-2H-tetrazol-2-yl)piperidin-1-yl)-2-(4-methyl-1,2,5-oxadiazol-3-yl)ethan-1-one]	0.963
Cc1nonc1CC(=O)N1CCC(c2nc(-c3ccccc3F)no2)CC1 [Compound 146, 1-(4-(3-(2-fluorophenyl)-1,2,4-oxadiazol-5-yl)piperidin-1-yl)-2-(4-methyl-1,2,5-oxadiazol-3-yl)ethan-1-one]	1.36
Cc1nonc1CC(=O)N1CCC(n2nnc(-c3ccccc3F)n2)CC1 [Compound 147, 1-(4-(5-(2-fluorophenyl)-2H-tetrazol-2-yl)piperidin-1-yl)-2-(4-methyl-1,2,5-oxadiazol-3-yl)ethan-1-one]	1.45
Cc1nonc1CC(=O)N1CCC(c2nc(-c3ncc(F)cn3)no2)CC1 [Compound 148, 1-(4-(3-(5-fluoropyrimidin-2-yl)-1,2,4-oxadiazol-5-yl)piperidin-1-yl)-2-(4-methyl-1,2,5-oxadiazol-3-yl)ethan-1-one]	> 10
Cc1nonc1CC(=O)N1CCC(n2nnc(-c3ccc(C(N)=O)cc3)n2)CC1 [Compound 149, 4-(2-(1-(2-(4-methyl-1,2,5-oxadiazol-3-yl)acetyl)piperidin-4-yl)-2H-tetrazol-5-yl)benzamide]	> 10
Cc1nonc1CC(=O)N1CCC(n2cc(C(=O)NCCO)nn2)CC1 [Compound 150, N-(2-hydroxyethyl)-1-(1-(2-(4-methyl-1,2,5-oxadiazol-3-yl)acetyl)piperidin-4-yl)-1H-1,2,3-triazole-4-carboxamide]	> 10
Cc1nonc1CS(=O)(=O)N1CCC(c2nc(-c3ccc(F)cc3)no2)CC1 [Compound 151, 3-(4-fluorophenyl)-5-(1-(((4-methyl-1,2,5-oxadiazol-3-yl)methyl)sulfonyl)piperidin-4-yl)-1,2,4-oxadiazole]	> 10
Cc1nonc1NC(=O)N1CCC(c2nc(-c3ccc(F)cc3)no2)CC1 [Compound 152, 4-(3-(4-fluorophenyl)-1,2,4-oxadiazol-5-yl)-N-(4-methyl-1,2,5-oxadiazol-3-yl)piperidine-1-carboxamide]	0.653
Cn1cnc(CC(=O)N2CCC(c3nc(-c4ccc(Cl)c(Cl)c4)no3)CC2)n1 [Compound 153, 1-(4-(3-(3,4-dichlorophenyl)-1,2,4-oxadiazol-5-yl)piperidin-1-yl)-2-(1-methyl-1H-1,2,4-triazol-3-yl)ethan-1-one]	> 10
Cn1cnc(CC(=O)N2CCC(c3nc(-c4ccc(F)cc4)no3)CC2)n1 [Compound 154, 1-(4-(3-(4-fluorophenyl)-1,2,4-oxadiazol-5-yl)piperidin-1-yl)-2-(1-methyl-1H-1,2,4-triazol-3-yl)ethan-1-one]	> 10
Cn1cnnc1CC(=O)N1CCC(c2nc(-c3ccc(F)cc3)no2)CC1 [Compound 155, 1-(4-(3-(4-fluorophenyl)-1,2,4-oxadiazol-5-yl)piperidin-1-yl)-2-(4-methyl-4H-1,2,4-triazol-3-yl)ethan-1-one]	> 10
